In patent US7635675B2, “Micro-particle fatty acid salt solid dosage formulations for therapeutic agents” (Biocon Limited, priority 2003, dated 2009):

Assay: USP dissolution test of fatty acid salts released from tablets and capsules
Type: physicochemical
Conditions: tablet formulations where the fatty acids have been milled to optimum particle size (FIGS. 3-8); USP apparatus 2, 50 rpm, 500 mL pH 7.4 phosphate buffer
Protocol: The formulations of the invention preferably have a high dissolution rate. The dissolution rate can be determined as follows: Use USP dissolution apparatus 2 (paddles) at 50 rpm with 500 mL of pH 7.4 phosphate buffer.
USP 26, <711> DISSOLUTION Test Description:
This test is provided to determine compliance with the dissolution requirements where stated in the individual monograph for a tablet or capsule dosage form. Of the types of apparatus described therein, use apparatus 2. […] Where water or a medium with a pH of less than 6.8 is specified as the Medium in the individual monograph, the same Medium specified may be used with the addition of purified pepsin that results in an activity of 750,000 Units or less per 1000 mL. For media with a pH of 6.8 or greater, pancreatin can be added to produce not more than 1750 USP Units of protease activity per 1000 mL. USP Reference Standards <11> (Dissolution Calibrator, Disintegrating). (Dissolution Calibrator, nondisintegrating) are used to calibrate the equipment.
Apparatus 2: The assembly consists of the following: a covered vessel made of glass or other inert, transparent material; a motor; a metallic drive shaft; and a stirring element. The vessel is partially immersed in a suitable water bath of any convenient size or placed in a heating jacket. […]

CCCCCCCCCCCC(=O)[O-].[Na+] [lauric acid sodium salt]
dissolution (release) of fatty acid salt from tablet formulations: readily released

CCCCCCCCCC(=O)[O-].[Na+] [capric acid sodium salt]
dissolution (release) of fatty acid salt from tablet formulations: readily released
